Patent US20230135894A1, “MK2 DEGRADERS AND USES THEREOF” (Kymera Therapeutics, Inc., priority 2021, published 2023)

Experiments:
[1] = target: T1, MK2 (Homo sapiens, UniProt P49137); assay: MK2 degradation in human THP-1 monocytic cells (MSD, 24 h); assay type: cell-based; parameters: endogenous in cells; conditions: for Dmax: THP-1, THP-1 cells; for DC50: THP-1 cells, read-out: MK2 MSD THP-1 degradation 24 h GMean External Abs DC50
How it was run: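 THP-1 cells (200,000/well) treated 24 h at 37 °C with compound dilution series (up to 10 points, 0.1% DMSO). MK2 in RIPA lysates quantified by MSD sandwich immunoassay. DC50 from 4-parameter logistic fit, DMSO-treated cells as high and lysis buffer as low signal.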

[2] = target: T1, MK2; assay: MK2 degradation in human SW1353 cells (MSD, 24 h); assay type: cell-based; parameters: endogenous in cells; host or cells: SW-1353 (ATCC HTB-94); key to MK2 MSD SW1353 degradation 24 h GMean External Abs DC50: A (<0.001 μM); B (0.001-0.01 μM); C (0.01-0.1 μM); D (>0.1 μM); —: “-”=not tested or inactive; conditions: for Dmax: read-out: MK2 MSD SW 1353 24 h Dmax %; for DC50: read-out: MK2 MSD SW1353 degradation 24 h GMean External Abs DC50
How it was run: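 SW1353 chondrosarcoma cells were treated with up to 10-point serial dilutions (0.1% DMSO) for 24 h at 37 °C, then lysed in RIPA buffer. MK2 levels were quantified by MSD sandwich immunoassay; DC50 came from a 4-parameter logistic fit normalised to DMSO-treated cells (high) and lysis buffer (low).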

T1 sequence (P49137 whole entry): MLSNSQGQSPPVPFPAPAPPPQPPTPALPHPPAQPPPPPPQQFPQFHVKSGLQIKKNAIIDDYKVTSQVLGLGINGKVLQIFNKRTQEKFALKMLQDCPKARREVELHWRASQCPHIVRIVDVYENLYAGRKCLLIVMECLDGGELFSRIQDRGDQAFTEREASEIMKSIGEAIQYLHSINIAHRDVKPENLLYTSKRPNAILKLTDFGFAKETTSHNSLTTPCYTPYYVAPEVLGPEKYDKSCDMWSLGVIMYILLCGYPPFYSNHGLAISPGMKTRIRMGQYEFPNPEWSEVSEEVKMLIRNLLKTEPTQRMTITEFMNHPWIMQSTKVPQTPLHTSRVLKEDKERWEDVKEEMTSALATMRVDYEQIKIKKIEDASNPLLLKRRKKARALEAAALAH

| Dmax [1] [%] | DC50 [1] [nM] | Dmax [2] [%] | DC50 [2] [nM] | MK2 MSD SW1353 degradation 24 h GMean External Abs DC50 [2] | SMILES |
| --- | --- | --- | --- | --- | --- |
| > 75 | 1 to 10 | > 75 | 1 to 10 |  | COc1ccc2c(c1N1CCC(CN3CCN(c4ccc(-c5ccc6c(ccc7sc8c(c76)NC[C@@H](C)NC8=O)n5)cn4)CC3)CC1)n(C)c(=O)n2C1CCC(=O)NC1=O (stereo partly shown) [Compound I-255] |
| > 75 | < 1 | > 75 | < 1 |  | Cn1c(=O)n(C2CCC(=O)NC2=O)c2cccc(N3CCC(CN4CCN(c5ccc(-c6cc(-c7cc8c([nH]7)CCNC8=O)ccn6)cn5)CC4)CC3)c21 (stereo not shown) [Compound I-138] |
| 50 to 75 | 1 to 10 | > 75 | < 1 |  | C[C@@H]1CNc2c(sc3ccc4nc(N5CCC(N6CCC7(CC6)CN(c6ccc8c(c6)n(C)c(=O)n8C6CCC(=O)NC6=O)C7)CC5)ccc4c23)C(=O)N1 (stereo partly shown) [Compound I-402] |
| > 75 | < 1 | > 75 | < 1 |  | C[C@@H]1CNc2c(sc3ccc4nc(-c5ccc(C6CCN(CC7CCN(c8cccc9c8n(C)c(=O)n9C8CCC(=O)NC8=O)CC7)CC6)nc5)ccc4c23)C(=O)N1 (stereo partly shown) [Compound I-122] |
| > 75 | < 1 | > 75 | 1 to 10 |  | C[C@@H]1CNc2c(sc3ccc4nc(-c5ccc(N6CCN(CC7CN(c8cccc9c8n(C)c(=O)n9C8CCC(=O)NC8=O)C7)CC6)cc5)ccc4c23)C(=O)N1 (stereo partly shown) [Compound I-269] |
| > 75 |  | > 75 |  |  | COc1cc(-c2ccc3c(ccc4sc5c(c43)NC[C@@H](C)NC5=O)n2)c(F)cc1N1CCN(CC2CCN(c3ccc4c(c3)n(C)c(=O)n4C3CCC(=O)NC3=O)CC2)CC1 (stereo partly shown) [Compound I-180] |
| < 50 | > 100 | < 50 | > 100 |  | Cn1c(=O)n(C2CCC(=O)NC2=O)c2ccc(N3CCC(CN4CCN(c5ccc(-c6cc(-c7cc8c(s7)CCNC8=O)ccn6)cc5)CC4)CC3)cc21 (stereo not shown) [Compound I-406] |
| > 75 | 1 to 10 | > 75 | 1 to 10 |  | CC(C)c1cc(-c2ccc3c(ccc4sc5c(c43)NC[C@@H](C)NC5=O)n2)cc(N2CCN(CC3CCN(c4ccc5c(c4)n(C)c(=O)n5C4CCC(=O)NC4=O)CC3)CC2)c1 (stereo partly shown) [Compound I-231] |
| > 75 | 1 to 10 | > 75 | 1 to 10 |  | C[C@@H]1CNc2c(sc3ccc4nc(-c5cccc(N6CCN(C(=O)COCCOCCOCCOCCc7ccc8c(c7)n(C)c(=O)n8C7CCC(=O)NC7=O)CC6)c5)ccc4c23)C(=O)N1 (stereo partly shown) [Compound I-36] |
| > 75 | 1 to 10 | > 75 | 1 to 10 |  | C[C@@H]1CNc2c(sc3ccc4nc(-c5ccc(CNC(=O)CCCCCCCc6cccc7c6n(C)c(=O)n7C6CCC(=O)NC6=O)cc5)ccc4c23)C(=O)N1 (stereo partly shown) [Compound I-88] |
| > 75 | 1 to 10 | > 75 | 1 to 10 |  | C[C@@H]1CNc2c(sc3ccc4nc(-c5cccc(C#CCCNC(=O)COCCOCCOCCOCCc6ccc7c(c6)n(C)c(=O)n7C6CCC(=O)NC6=O)c5)ccc4c23)C(=O)N1 (stereo partly shown) [Compound I-51] |
| > 75 | < 1 | > 75 | < 1 |  | C[C@@H]1CNc2c(sc3ccc4nc(N5CCC(N6CC7(CCN(c8ccc9c(c8)n(C)c(=O)n9C8CCC(=O)NC8=O)CC7)C6)CC5)ccc4c23)C(=O)N1 (stereo partly shown) [Compound I-440] |
| < 50 | > 100 | < 50 | > 100 |  | Cn1c(=O)n(C2CCC(=O)NC2=O)c2cccc(CCCCN3CC4(CCN(c5ccc6c(c5)Cn5cc(-c7ccc(F)cc7)cc5-c5nccn5-6)C4)C3)c21 (stereo not shown) [Compound I-167] |
| > 75 | < 1 | > 75 | < 1 |  | C[C@@H]1CNc2c(sc3ccc4nc(-c5ccnc(N6CCC(CN7CCN(c8ccc9c(c8)n(C)c(=O)n9C8CCC(=O)NC8=O)CC7)CC6)c5)ccc4c23)C(=O)N1 (stereo partly shown) [Compound I-277] |
| > 75 | 1 to 10 | > 75 | < 1 |  | Cn1c(=O)n(C2CCC(=O)NC2=O)c2cccc(N3CC(N4CCN(c5ccc(-c6cc(-c7cc8c([nH]7)C7(CCCC7)CNC8=O)ccn6)cc5)CC4)C3)c21 (stereo not shown) [Compound I-418] |
| > 75 | < 1 | > 75 | < 1 |  | Cc1nc(N2CCN(CC3CN(c4ccc5c(c4)n(C)c(=O)n5C4CCC(=O)NC4=O)C3)CC2)ccc1-c1ccc2c(ccc3sc4c(c32)NC[C@@H](C)NC4=O)n1 (stereo partly shown) [Compound I-234] |
| > 75 | < 1 | > 75 | < 1 |  | C[C@@H]1CNc2c(sc3ccc4nc(-c5ccc(N6CCC(CN7CCC(c8ccc9c(c8)n(C)c(=O)n9C8CCC(=O)NC8=O)CC7)CC6)cc5F)ccc4c23)C(=O)N1 (stereo partly shown) [Compound I-297] |
| > 75 | < 1 | > 75 | < 1 |  | C[C@@H]1CNc2c(sc3ccc4nc(-c5cnc(N6CCN(CC7CCN(c8ccc9c(c8)n(C)c(=O)n9C8CCC(=O)NC8=O)CC7)CC6)nc5)ccc4c23)C(=O)N1 (stereo partly shown) [Compound I-282] |
| > 75 | < 1 | > 75 | < 1 |  | C[C@@H]1CNc2c(sc3ccc4nc(-c5ccc(N6CCN(C[C@H]7CCN(c8ccc9c(c8)n(C)c(=O)n9C8CCC(=O)NC8=O)C7)CC6)cc5)ccc4c23)C(=O)N1 (stereo partly shown) [Compound I-195] |
| > 75 | < 1 | > 75 | < 1 |  | C[C@@H]1CNc2c(sc3ccc4nc(-c5ccc(N6CCN(CCc7ccc8c(c7)n(C)c(=O)n8C7CCC(=O)NC7=O)CC6)nc5)ccc4c23)C(=O)N1 (stereo partly shown) [Compound I-279] |
| 50 to 75 | 10 to 100 | > 75 | 1 to 10 |  | Cn1c(=O)n(C2CCC(=O)NC2=O)c2ccc(CCCN3CCN(c4ccc(-c5cc(-c6cc7c([nH]6)C6(CC6)CNC7=O)ccn5)cc4)CC3)cc21 (stereo not shown) [Compound I-242] |
| > 75 | < 1 | > 75 | 1 to 10 |  | C[C@@H]1CNc2c(sc3ccc4nc(-c5cccc(N6CCC(CN7CCC(CCc8cccc9c8n(C)c(=O)n9C8CCC(=O)NC8=O)CC7)CC6)c5)ccc4c23)C(=O)N1 (stereo partly shown) [Compound I-106] |
| > 75 | 1 to 10 | > 75 | 1 to 10 |  | C[C@@H]1CNc2c(sc3ccc4nc(-c5cccc(N6CCC(CN7CCN(c8cccc9c(N%10CCC(=O)NC%10=O)cncc89)CC7)CC6)c5)ccc4c23)C(=O)N1 [Compound I-310] |
| 50 to 75 | 10 to 100 | > 75 | < 1 |  | COc1cc(-c2ccc3c(ccc4sc5c(c43)NC[C@@H](C)NC5=O)n2)c(C)cc1N1CCN(CC2CCN(c3ccc4c(c3)n(C)c(=O)n4C3CCC(=O)NC3=O)CC2)CC1 (stereo partly shown) [Compound I-432] |
| > 75 | 1 to 10 | > 75 | 1 to 10 |  | C[C@@H]1CNc2c(sc3ccc4nc(-c5ccc(N6CCN(CCC7CCN(c8cccc9c8n(C)c(=O)n9C8CCC(=O)NC8=O)CC7)CC6)cc5)ccc4c23)C(=O)N1 (stereo partly shown) [Compound I-127] |
| 50 to 75 | 1 to 10 | > 75 |  | — | Cc1cc(-c2cc(-c3cc4c([nH]3)CCNC4=O)ccn2)cc(C)c1N1CCN(CC2CCN(c3ccc4c(c3)n(C)c(=O)n4C3CCC(=O)NC3=O)CC2)CC1 (stereo not shown) [Compound I-207] |
| > 75 | < 1 | > 75 | < 1 |  | COc1ccc2c(c1N1CCN(CC3CCN(c4ccc(-c5ccc6c(ccc7sc8c(c76)NC[C@@H](C)NC8=O)n5)cn4)CC3)CC1)n(C)c(=O)n2C1CCC(=O)NC1=O (stereo partly shown) [Compound I-256] |
| > 75 | < 1 | > 75 | < 1 |  | C[C@@H]1CNc2c(sc3ccc4nc(-c5ccc(N6CC7(CCN(c8ccc9c(c8)n(C)c(=O)n9C8CCC(=O)NC8=O)CC7)C6)nc5)ccc4c23)C(=O)N1 (stereo partly drawn) [Compound I-409, 3-(3-methyl-5-(2-(5-((R)-10-methyl-8-oxo-9,10,11,12-tetrahydro-8H-[1,4]diazepino[5′,6′:4,5]thieno[3,2-f]quinolin-3-yl)pyridin-2-yl)-2,7-diazaspiro[3.5]nonan-7-yl)-2-oxo-2,3-dihydro-1H-benzo[d]imidazol-1-yl)piperidine-2,6-dione] |
| 50 to 75 | 10 to 100 | > 75 | 10 to 100 |  | O=C1CCN(c2cncc3c(N4CCC(CN5CCN(c6ccc(-c7cc(-c8cc9c([nH]8)CCNC9=O)ccn7)cc6)CC5)CC4)cccc23)C(=O)N1 [Compound I-210] |

| SMILES | Dmax [1] [%] | DC50 [1] [nM] | Dmax [2] [%] | DC50 [2] [nM] | MK2 MSD SW1353 degradation 24 h GMean External Abs DC50 [2] |
| --- | --- | --- | --- | --- | --- |
| C[C@@H]1CNc2c(sc3ccc4nc(N5CC6CCC(C5)N6CC5CCN(c6ccc7c(c6)n(C)c(=O)n7C6CCC(=O)NC6=O)CC5)ccc4c23)C(=O)N1 (stereo partly shown) [Compound I-433] | < 50 | > 100 | < 50 | > 100 |  |
